Test results from PMC4823711, “Allosteric Partial Inhibition of Monomeric Proteases. Sulfated Coumarins Induce Regulation, not just Inhibition, of Thrombin” (Scientific Reports, 2016).
Where two headings read alike, the source gives them in different places.

How the values were obtained:
Type in all cases: biochemical
[1] = molecular target: T1, thrombin (Homo sapiens, UniProt P00734); experiment: Antithrombin inactivation of thrombin in the presence of sulfated coumarin; set-up: 6 nM plasma α-thrombin; purchased Haematologic Technologies (Essex Junction, VT); host or cells: human plasma
Procedure: The effect of 3g on the reaction of thrombin (or factor Xa) with antithrombin was studied under pseudo-first order conditions such that [AT]0 ≫ [T]0. A fixed concentration of 6 nM plasma α-thrombin in 20 mM Tris-HCl buffer, pH 7.2, containing 100 mM NaCl, 2.5 mM CaCl2 and 0.1% PEG 8000 at 25 °C was incubated for 128 min with final concentrations of 0, 75, 225, or 675 nM of 3g following which a fixed concentration of 100 nM of antithrombin was added and the reaction allowed to proceed. […] The initial rate of hydrolysis of the Spectrozymes were monitored from the linear increase in A405. The fractional residual enzyme activity at each time point was calculated from the slope, i.e., thrombin activity, measured at the start of the experiment and fitted by the standard exponential decay equation 6 to calculate the observed pseudo-first order rate constant, kOBS, at each concentration of 3g. The intrinsic second-order rate constant of antithrombin inhibition of thrombin (kINT) was calculated using equation 7 and plotted against the concentration of thrombin–3g complex, obtained from quadratic equation 8, to derive the kINT of antithrombin inhibition of thrombin–3g complex.

[2] = molecular target: T1, thrombin; experiment: Thrombin inhibition in the presence of exosite 1 (HirP) and exosite 2 (UFH) ligands; set-up: 6 nM plasma α-thrombin; purchased Haematologic Technologies (Essex Junction, VT)
Procedure: Thrombin inhibition by 3g was examined in the presence of either HirP (exosite 1 ligand) or UFH (exosite 2 ligand). 3g was prepared in DMSO (0.010–50 μM) and thrombin (4–8 nM) were incubated at 25 °C with HirP (0–187 nM) or UFH (0–22.8 μM) in buffer (20 mM Tris-HCl, 100 mM NaCl, 2.5 mM CaCl2, 0.1% PEG 8000, pH 7.4). After 10 min, thrombin activity was measured using Spectrozyme TH hydrolysis assay, as described above. The slopes obtained (in triplicate) were fitted using equation 1 to calculate IC50,app, ∆Y, and HS. The IC50,app at each concentration of the competitor was also calculated using the Dixon-Webb relationship (equation 3) from the known affinities (Kcomp) of the competitor.

[3] = molecular target: T2, thrombin mutant R97A (Homo sapiens, UniProt P00734, R456A); experiment: Inhibition of thrombin mutant R97A; conditions: pH 7.4, 25 °C
T2 construct: a group of thrombin mutants containing replacement of either Arg or Lys present in exosite 2 to Ala
Procedure: (§1) Chromogenic substrate hydrolysis assay was used to measure potency of inhibition, as previously reported. The assay was performed using Flexstation III (Molecular Devices, Sunnyvale, CA) by monitoring substrate hydrolysis at 405 nm. For thrombin and its mutants, 180 μL of buffer (20 mM Tris-HCl, 100 mM NaCl, 2.5 mM CaCl2, 0.1% (polyethylene glycol) PEG 8000, pH 7.4) was added to each well followed by 5 μL of 240 nM thrombin and 10 μL of sulfated coumarin in DMSO to give 0.002 to 250 μM final concentration (or 10 μL of DMSO alone). After incubation for 10 min at 25 °C, 5 μL of 2 mM Spectrozyme TH was added to each well simultaneously and allowed to react for 60 seconds at 25 °C while simultaneously monitoring the reaction to obtain the rate of increase in A405. Identical experimental conditions were used for reactions in the presence of antithrombin, except for 100 nM of antithrombin added prior to the addition of the substrate.

[4] = molecular target: T3, thrombin mutant K169A (Homo sapiens, UniProt P00734, K537A); experiment: Inhibition of thrombin mutant K169A; conditions: pH 7.4, 25 °C
T3 construct: a group of thrombin mutants containing replacement of either Arg or Lys present in exosite 2 to Ala
Procedure: as §1

[5] = molecular target: T4, thrombin mutant R175A (Homo sapiens, UniProt P00734, R543A); experiment: Inhibition of thrombin mutant R175A; conditions: pH 7.4, 25 °C
T4 construct: a group of thrombin mutants containing replacement of either Arg or Lys present in exosite 2 to Ala
Procedure: as §1

[6] = molecular target: T5, thrombin mutant K236A (Homo sapiens, UniProt P00734, K611A); experiment: Inhibition of thrombin mutant K236A; conditions: pH 7.4, 25 °C
T5 construct: a group of thrombin mutants containing replacement of either Arg or Lys present in exosite 2 to Ala
Procedure: as §1

kINT, second order rate constant of antithrombin inhibition of thrombin–3g complex ([1]; at 100% saturation of thrombin, pH 7.2, 25 °C, thrombin alone 2476 ± 228): 821 ± 198 M⁻¹ s⁻¹ | proteolytic activity of thrombin–3g complex ([1]; kINT in the absence of 3g equated with 100%): 33 ± 12% | IC50 ([2]; [HirP] 0 nM, Dixon-Webb relationship, read-out: IC50,predicted): 240 nM | HS ([2]; [HirP] 0 nM, pH 7.4, 25 °C): 3.3 | ΔY ([2]; [HirP] 0 nM, pH 7.4, 25 °C): 52 ± 2% | IC50 ([2]; [HirP] 0 nM, pH 7.4, 25 °C, read-out: IC50,app): 220 ± 20 nM | IC50 ([2]; [HirP] 25 nM, Dixon-Webb relationship, read-out: IC50,predicted): 450 nM | HS ([2]; [HirP] 25 nM, pH 7.4, 25 °C): 2.4 | ΔY ([2]; [HirP] 25 nM, pH 7.4, 25 °C): 58 ± 1% | IC50 ([2]; [HirP] 25 nM, pH 7.4, 25 °C, read-out: IC50,app): 330 ± 20 nM | IC50 ([2]; [HirP] 187 nM, Dixon-Webb relationship, read-out: IC50,predicted): 670 nM | HS ([2]; [HirP] 187 nM, pH 7.4, 25 °C): 2.0 | ΔY ([2]; [HirP] 187 nM, pH 7.4, 25 °C): 59 ± 6% | IC50 ([2]; [HirP] 187 nM, pH 7.4, 25 °C, read-out: IC50,app): 330 ± 60 nM | IC50 ([2]; [UFH] 0 μM, Dixon-Webb relationship, read-out: IC50,predicted): 170 nM | HS ([2]; [UFH] 0 μM, pH 7.4, 25 °C): 1.3 | ΔY ([2]; [UFH] 0 μM, pH 7.4, 25 °C): 56 ± 3% | IC50 ([2]; [UFH] 0 μM, pH 7.4, 25 °C, read-out: IC50,app): 170 ± 20 nM | IC50 ([2]; [UFH] 11.4 μM, Dixon-Webb relationship, read-out: IC50,predicted): 290 nM | HS ([2]; [UFH] 11.4 μM, pH 7.4, 25 °C): 1.7 | ΔY ([2]; [UFH] 11.4 μM, pH 7.4, 25 °C): 66 ± 5% | IC50 ([2]; [UFH] 11.4 μM, pH 7.4, 25 °C, read-out: IC50,app): 290 ± 30 nM | IC50 ([2]; [UFH] 22.8 μM, Dixon-Webb relationship, read-out: IC50,predicted): 450 nM | HS ([2]; [UFH] 22.8 μM, pH 7.4, 25 °C): 3.7 | ΔY ([2]; [UFH] 22.8 μM, pH 7.4, 25 °C): 59 ± 3% | IC50 ([2]; [UFH] 22.8 μM, pH 7.4, 25 °C, read-out: IC50,app): 580 ± 30 nM | increase of IC50 in the presence of HirP ([2]; exosite 1 ligand HirP): 50% | HS [3]: 2.4 | IC50 [3]: 380 ± 70 nM | ΔY [3]: 41 ± 4% | HS [4]: 7.6 | IC50 [4]: 494 ± 50 nM | ΔY [4]: 38 ± 3% | HS [5]: 2.2 | IC50 [5]: 409 ± 80 nM | ΔY [5]: 42 ± 5% | HS [6]: 2.6 | IC50 [6]: 525 ± 70 nM | ΔY [6]: 64 ± 4%
Structure (SMILES): O=c1oc2cc(OCCCCn3cc(COc4ccc(-c5c(-c6ccccc6)c6cc(Cl)cc(Cl)c6oc5=O)cc4)nn3)ccc2c(-c2ccccc2)c1-c1ccc(OS(=O)(=O)O)cc1 [3g]
